Data published in the supplement of paper PMC8253809.

Experiments:
SUDIPGXXI [1] = diffuse intrinsic pontine glioma line; assay: area under dose-response curve of % growth inhibition (log2 RLU vs DMSO / staurosporine), 1e-11 to 1e-4 M (% x log10 M); higher = more growth inhibition
Method in brief: (§1)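 Patient-derived pHGG/DIPG cell lines and astrocyte controls were grown on 1% Geltrex-coated 384-well plates and exposed to a 10-point threefold dilution series (mean top concentration 35 μM), in triplicate. Exposure was 7 days (iAstro 3 days) at 37 °C, 5% CO2. CellTiter-Glo luminescence was log2-transformed and normalised per plate to % activity between solvent and positive controls. Area under the curve was taken by trapezoid rule from the fitted log-logistic curve, or from a smoothing spline when the sigmoid fit failed.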

HGGX6 [2] = H3.3 G34R paediatric high-grade glioma line; assay: as above
Method in brief: as §1

HGGX39 [3] = paediatric high-grade glioma line; assay: as above
Method in brief: as §1

DIPGX7 [4] = H3.3 K27M diffuse intrinsic pontine glioma line; assay: as above
Method in brief: as §1

HGGX2 [5] = paediatric high-grade glioma line; assay: as above
Method in brief: as §1

SUDIPGXIX [6] = diffuse intrinsic pontine glioma line; assay: as above
Method in brief: as §1

DIPGX37 [7] = H3.3 K27M diffuse intrinsic pontine glioma line; assay: as above
Method in brief: as §1

DIPGX9 [8] = diffuse intrinsic pontine glioma line; assay: as above
Method in brief: as §1

SUDIPGIV [9] = diffuse intrinsic pontine glioma line; assay: as above
Method in brief: as §1

SUDIPGXIII [10] = diffuse intrinsic pontine glioma line; assay: as above
Method in brief: as §1

SUDIPGXVII [11] = diffuse intrinsic pontine glioma line; assay: as above
Method in brief: as §1

HGGX42 [12] = H3.3 G34R paediatric high-grade glioma line; assay: as above
Method in brief: as §1

HABS [13] = astrocyte control; assay: as above
Method in brief: as §1

iAstro [14] = astrocyte control; assay: as above
Method in brief: as §1

DIPGX29 = H3.3 K27M diffuse intrinsic pontine glioma line; assay: maximal growth inhibition (yFin) relative to DMSO / staurosporine; higher = more efficacious
Method in brief: (§2)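 Patient-derived pHGG/DIPG cell lines and astrocyte controls were plated in 384-well plates coated with 1% Geltrex and dosed by pin tool with a 10-point threefold dilution series (mean top concentration 35 μM), in triplicate. Cells were exposed for 7 days (3 days for iAstro) at 37 °C and 5% CO2. CellTiter-Glo luminescence was log2-transformed, normalised per plate to % activity between negative (solvent) and positive control wells, and pooled. EC50 and maximal response (yFin) were taken from whichever three- or four-parameter log-logistic fit had the lowest AICc.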

SUDIPGXXI [15] = assay: as above
Method in brief: as §2

HGGX6 [16] = assay: as above
Method in brief: as §2

HGGX39 [17] = assay: as above
Method in brief: as §2

DIPGX7 [18] = assay: as above
Method in brief: as §2

HGGX2 [19] = assay: as above
Method in brief: as §2

SUDIPGXIX [20] = assay: as above
Method in brief: as §2

DIPGX37 [21] = assay: as above
Method in brief: as §2

DIPGX9 [22] = assay: as above
Method in brief: as §2

SUDIPGIV [23] = assay: as above
Method in brief: as §2

SUDIPGXIII [24] = assay: as above
Method in brief: as §2

SUDIPGVI = diffuse intrinsic pontine glioma line; assay: as above
Method in brief: as §2

SUDIPGXVII [25] = assay: as above
Method in brief: as §2

HGGX42 [26] = assay: as above
Method in brief: as §2

HABS [27] = assay: as above
Method in brief: as §2

iAstro [28] = assay: as above
Method in brief: as §2

Structure (SMILES) | area under dose-response curve (SUDIPGXXI [1]) | area under dose-response curve (HGGX6 [2]) | area under dose-response curve (HGGX39 [3]) | area under dose-response curve (DIPGX7 [4]) | area under dose-response curve (HGGX2 [5]) | area under dose-response curve (SUDIPGXIX [6]) | area under dose-response curve (DIPGX37 [7]) | area under dose-response curve (DIPGX9 [8]) | area under dose-response curve (SUDIPGIV [9]) | area under dose-response curve (SUDIPGXIII [10]) | area under dose-response curve (SUDIPGXVII [11]) | area under dose-response curve (HGGX42 [12]) | area under dose-response curve (HABS [13]) | area under dose-response curve (iAstro [14]) | maximal growth inhibition (DIPGX29) [%] | maximal growth inhibition (SUDIPGXXI [15]) [%] | maximal growth inhibition (HGGX6 [16]) [%] | maximal growth inhibition (HGGX39 [17]) [%] | maximal growth inhibition (DIPGX7 [18]) [%] | maximal growth inhibition (HGGX2 [19]) [%] | maximal growth inhibition (SUDIPGXIX [20]) [%] | maximal growth inhibition (DIPGX37 [21]) [%] | maximal growth inhibition (DIPGX9 [22]) [%] | maximal growth inhibition (SUDIPGIV [23]) [%] | maximal growth inhibition (SUDIPGXIII [24]) [%] | maximal growth inhibition (SUDIPGVI) [%] | maximal growth inhibition (SUDIPGXVII [25]) [%] | maximal growth inhibition (HGGX42 [26]) [%] | maximal growth inhibition (HABS [27]) [%] | maximal growth inhibition (iAstro [28]) [%]
COc1ccc(C[C@H](NC(=O)[C@H](C)NC(=O)CN2CCOCC2)C(=O)N[C@@H](Cc2ccccc2)C(=O)C2(C)CO2)cc1 (stereo in doubt) [ONX-0914] | 328 | 182 | 209 | 220 | 277 | 245 | 242 | 252 | 255 | 230 | 175 | 186 | 206 | 243 | 71.9 | 93.9 | 92.2 | 91.9 | 97.5 | 87.4 | 95 | 95.7 | 96.9 | 89.7 | 89.5 | 85.8 | 91.8 | 68 | 94.2 | 73.5
COc1cccc2c1C(=O)c1c(O)c3c(c(O)c1C2=O)C[C@@](O)(C(=O)CO)C[C@@H]3O[C@H]1C[C@H](N)[C@H](O)[C@H](C)O1 [DOXORUBICIN] | 420 | 147 | 174 | 213 | 168 | 294 | 210 | 293 | 255 | 170 | 195 | 260 | 210 | 78.3 | 102 | 95.8 | 86.1 | 101 | 103 | 61.1 | 97.2 | 86.8 | 99.9 | 97.8 | 87.7 | 89.1 | 95.8 | 96.5 | 69.6 | 26.4
OC1(c2ccc(Cl)c(C(F)(F)F)c2)CCN(CCCC(c2ccc(F)cc2)c2ccc(F)cc2)CC1 [PENFLURIDOL] | 201 | 104 | 113 | 163 | 175 | 149 | 126 | 147 | 152 | 110 | 126 | 160 | 78.4 | 136 | 94.8 | 106 | 84.9 | 91 | 102 | 98.9 | 97.4 | 93.5 | 105 | 97.2 | 92.8 | 98.5 | 95.6 | 98.5 | 88.6 | 85.2
CN(C)C/C=C/C(=O)Nc1cc2c(Nc3ccc(F)c(Cl)c3)ncnc2cc1O[C@H]1CCOC1 [AFATINIB] | 168 | 86.1 | 99.2 | 108 | 115 | 123 | 116 | 144 | 90.9 | 85.6 | 87.7 | 108 | 102 | 80.2 | 91.2 | 120 | 93.5 | 93.2 | 110 | 109 | 120 | 95.5 | 118 | 111 | 92.1 | 111 | 109 | 108 | 101 | 92.5
C[C@@]12OC(=O)[C@]1([C@@H](O)[C@@H]1C=CCCC1)NC(=O)[C@@H]2CCCl [MARIZOMIB] | 422 | 135 | 241 | 251 | 337 | 229 | 254 | 302 | 407 | 75.8 | 108 | 163 | 149 | 375 | 32.8 | 109 | 55.2 | 96.6 | 101 | 98.7 | 94.2 | 99.7 | 101 | 119 | 28.3 | 103 | 40.4 | 62.8 | 54.9 | 89.6
C[C@@H](Oc1cc(-c2cnn(C3CCNCC3)c2)cnc1N)c1c(Cl)ccc(F)c1Cl [CRIZOTINIB] | 200 | 59.1 | 64 | 91.9 | 107 | 123 | 87.8 | 112 | 96.9 | 74.2 | 87 | 117 | 76.5 | 78 | 104 | 119 | 88.6 | 92.8 | 104 | 97.4 | 99.6 | 102 | 101 | 98.4 | 92.3 | 94.1 | 96.4 | 102 | 90.9 | 87.3
CC(C)C[C@H](NC(=O)CNC(=O)c1cc(Cl)ccc1Cl)B(O)O [IXAZOMIB] | 337 | 260 | 302 | 302 | 242 | 327 | 315 | 304 | 322 | 266 | 247 | 234 | 288 | 264 | 77.5 | 86.4 | 79.4 | 84.7 | 81.4 | 86 | 88.1 | 79.9 | 82.6 | 89.4 | 77.3 | 73.9 | 81 | 70.6 | 84.1 | 67.4
c1ccc2c(-c3cnn4cc(-c5ccc(N6CCNCC6)cc5)cnc34)ccnc2c1 | 291 | 146 | 147 | 183 | 185 | 187 | 163 | 202 | 171 | 162 | 172 | 171 | 129 | 137 | 95.2 | 119 | 92.8 | 88.9 | 106 | 104 | 113 | 99 | 108 | 107 | 105 | 105 | 107 | 102 | 108 | 93.5
O=C(Nc1ccc(Nc2nccc(Nc3cc(C4CCCC4)[nH]n3)n2)cc1)Nc1cccc(C(F)(F)F)c1 [CD532] | 352 | 202 | 200 | 282 | 246 | 283 | 238 | 305 | 276 | 235 | 247 | 271 | 174 | 213 | 94.4 | 109 | 87.6 | 104 | 112 | 111 | 112 | 98.2 | 115 | 112 | 103 | 111 | 100 | 102 | 122 | 95.2
CC(=O)OC[C@H]1O[C@@H]([S-])[C@H](OC(C)=O)[C@@H](OC(C)=O)[C@@H]1OC(C)=O.CCP(CC)CC.[Au+] [AURANOFIN] | 323 | 218 | 165 | 228 | 248 | 219 | 219 | 209 | 198 | 168 | 169 | 243 | 146 | 196 | 93.1 | 122 | 92.2 | 107 | 119 | 110 | 118 | 90.9 | 118 | 117 | 113 | 114 | 117 | 116 | 113 | 106
CN(C)C/C=C/C(=O)Nc1ccc(C(=O)Nc2cccc(Nc3ncc(Cl)c(-c4c[nH]c5ccccc45)n3)c2)cc1 [THZ1] | 460 | 267 | 272 | 356 | 349 | 343 | 302 | 372 | 342 | 308 | 329 | 360 | 284 | 186 | 87.4 | 107 | 81.5 | 86.2 | 88.6 | 97.5 | 84.4 | 81.3 | 88.7 | 87.4 | 85 | 85.3 | 87.2 | 110 | 100 | 99.1
Cc1ccc2nc(NCCN)c3ncc(C)n3c2c1 | 143 | 75.1 | 52.5 | 96.7 | 54.2 | 79.1 | 93.7 | 99.8 | 113 | 89.5 | 78.2 | 83.7 | 54.2 | 35.1 | 88.2 | 117 | 81.8 | 57.7 | 92.7 | 45.5 | 85.2 | 86.6 | 98.5 | 91.6 | 73.5 | 70.6 | 88.5 | 83.9 | 58.1 | 26.6
